From PMC4917279 (Journal of Medicinal Chemistry, 2016)

Assays:
[1] = Caco2 drug permeability assay; assay type: in vitro ADME; details: human, Caco-2, pH 7.2
Experimental: Caco-2 cells (purchased from DSMZ Braunschweig, Germany) were seeded at a density of 4.5 × 10^4 cell per well on 24-well insert plates, 0.4 μm pore size, and grown for 15 days in DMEM medium supplemented with 10% fetal bovine serum, 1% GlutaMAX (100×, GIBCO), 100 μg/mL penicillin, 100 μg/mL streptomycin (GIBCO), and 1% nonessential amino acids (100×). Cells were maintained at 37 °C in a humified 5% CO2 atmosphere. Medium was changed every second to third day. Before running the permeation assay, the culture medium was replaced by an FCS-free Hepes-carbonate transport buffer (pH 7.2). For assessment of monolayer integrity, the transepithelial electrical resistance (TEER) was measured. Test compounds were dissolved in DMSO and added either to the apical or basolateral compartment in a final concentration of 2 μM. Before and after incubation at 37 °C, samples were taken from both compartments. Analysis of compound content was performed following precipitation with methanol and LC/MS/MS analysis. Permeability (Papp) was calculated in the apical to basolateral (A → B) and basolateral to apical (B → A) directions. The apparent permeability was calculated using following equation: [drawing 3] where Vr = volume of medium in the receiver chamber, P0 = measured peak area of the test drug in the donor chamber at t = 0, S = surface area of the monolayer, P2 = measured peak area of the test drug in the acceptor chamber after incubation for 2 h, and t = incubation time. The efflux ratio basolateral (B) to apical (A) was calculated by dividing Papp (B–A) by Papp (A–B). In addition, the compound recovery was calculated. Reference compounds were analyzed in parallel as assay controls. All samples were analyzed by LC/MS/MS.

AMPK-alpha1 = target: T1, AMPK-alpha1 (Homo sapiens, UniProt Q13131); assay: KINOMEscan; assay type: binding; details: read-out: %Ctrl @ 1000 nM
T1 construct: purchased DiscoveRx KINOMEscan

BMX = target: T2, BMX (Homo sapiens, UniProt P51813); assay: KINOMEscan; assay type: binding; details: read-out: %Ctrl @ 1000 nM
T2 construct: purchased DiscoveRx KINOMEscan

BUB1 = target: T3, BUB1 (Homo sapiens, UniProt O43683); assay: KINOMEscan; assay type: binding; details: read-out: %Ctrl @ 1000 nM
T3 construct: purchased DiscoveRx KINOMEscan

CDK2 = target: T4, CDK2 (Homo sapiens, UniProt P24941); assay: KINOMEscan; assay type: binding; details: read-out: %Ctrl @ 1000 nM
T4 construct: purchased DiscoveRx KINOMEscan

CDKL1 = target: T5, CDKL1 (Homo sapiens, UniProt Q00532); assay: KINOMEscan; assay type: binding; details: read-out: %Ctrl @ 1000 nM
T5 construct: purchased DiscoveRx KINOMEscan
T5 sequence (Q00532 whole entry): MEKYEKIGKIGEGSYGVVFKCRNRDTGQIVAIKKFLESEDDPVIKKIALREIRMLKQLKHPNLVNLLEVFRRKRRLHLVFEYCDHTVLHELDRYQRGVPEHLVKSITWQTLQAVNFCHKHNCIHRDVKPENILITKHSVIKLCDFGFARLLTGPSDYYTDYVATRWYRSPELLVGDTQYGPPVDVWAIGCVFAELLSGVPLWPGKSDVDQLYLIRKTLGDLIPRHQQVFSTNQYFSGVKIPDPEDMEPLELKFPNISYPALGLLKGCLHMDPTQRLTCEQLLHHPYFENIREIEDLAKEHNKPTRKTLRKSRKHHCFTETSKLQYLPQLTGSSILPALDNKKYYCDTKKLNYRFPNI

CSK = target: T6, CSK (Homo sapiens, UniProt P41240); assay: KINOMEscan; assay type: binding; details: read-out: %Ctrl @ 1000 nM
T6 construct: purchased DiscoveRx KINOMEscan

DDR2 = target: T7, DDR2 (Homo sapiens, UniProt Q16832); assay: KINOMEscan; assay type: binding; details: read-out: %Ctrl @ 1000 nM
T7 construct: purchased DiscoveRx KINOMEscan

EGFR(E746-A750del) = target: T8, EGFR(E746-A750del) (Homo sapiens, UniProt P00533, DEL746-750); assay: KINOMEscan; assay type: binding; details: read-out: %Ctrl @ 1000 nM
T8 construct: purchased DiscoveRx KINOMEscan
T8 sequence (P00533 with tags, fused parts or gaps DEL746-750 limits assumed): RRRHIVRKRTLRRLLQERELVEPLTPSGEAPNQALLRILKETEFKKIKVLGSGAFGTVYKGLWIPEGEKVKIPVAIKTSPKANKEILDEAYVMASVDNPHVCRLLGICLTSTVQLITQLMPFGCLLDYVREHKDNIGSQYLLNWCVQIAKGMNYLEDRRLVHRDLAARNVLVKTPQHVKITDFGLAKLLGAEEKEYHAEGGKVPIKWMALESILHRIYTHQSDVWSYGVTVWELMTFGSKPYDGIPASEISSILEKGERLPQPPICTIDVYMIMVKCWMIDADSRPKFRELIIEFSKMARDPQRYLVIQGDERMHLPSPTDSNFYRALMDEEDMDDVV

EPHA2 = target: T9, EPHA2 (Homo sapiens, UniProt P29317); assay: KINOMEscan; assay type: binding; details: read-out: %Ctrl @ 1000 nM
T9 construct: purchased DiscoveRx KINOMEscan

EPHA8 = target: T10, EPHA8 (Homo sapiens, UniProt P29322); assay: KINOMEscan; assay type: binding; details: read-out: %Ctrl @ 1000 nM
T10 construct: purchased DiscoveRx KINOMEscan

ERK2 = target: T11, ERK2 (Homo sapiens, UniProt P28482); assay: KINOMEscan; assay type: binding; details: read-out: %Ctrl @ 1000 nM
T11 construct: purchased DiscoveRx KINOMEscan

ERK4 = target: T12, ERK4 (Homo sapiens, UniProt P31152); assay: KINOMEscan; assay type: binding; details: read-out: %Ctrl @ 1000 nM
T12 construct: purchased DiscoveRx KINOMEscan

FAK = target: T13, FAK (Homo sapiens, UniProt Q05397); assay: KINOMEscan; assay type: binding; details: read-out: %Ctrl @ 1000 nM
T13 construct: purchased DiscoveRx KINOMEscan

FGFR2 = target: T14, FGFR2 (Homo sapiens, UniProt P21802); assay: KINOMEscan; assay type: binding; details: read-out: %Ctrl @ 1000 nM
T14 construct: purchased DiscoveRx KINOMEscan

FLT3(D835H) = target: T15, FLT3(D835H) (Homo sapiens, UniProt P36888, D835H); assay: KINOMEscan; assay type: binding; details: read-out: %Ctrl @ 1000 nM
T15 construct: purchased DiscoveRx KINOMEscan

FLT3(ITD) = assay: KINOMEscan; assay type: binding
[2] = target: T16, JAK1(JH2domain-pseudokinase) (Homo sapiens, UniProt P23458); assay: KINOMEscan; assay type: binding; details: read-out: %Ctrl @ 1000 nM
T16 construct: JAK1(JH2domain-pseudokinase); purchased DiscoveRx KINOMEscan

KIT(D816H) = target: T17, KIT(D816H) (Homo sapiens, UniProt P10721, D816H); assay: KINOMEscan; assay type: binding; details: read-out: %Ctrl @ 1000 nM
T17 construct: purchased DiscoveRx KINOMEscan
T17 sequence (P10721 26-976 D816H): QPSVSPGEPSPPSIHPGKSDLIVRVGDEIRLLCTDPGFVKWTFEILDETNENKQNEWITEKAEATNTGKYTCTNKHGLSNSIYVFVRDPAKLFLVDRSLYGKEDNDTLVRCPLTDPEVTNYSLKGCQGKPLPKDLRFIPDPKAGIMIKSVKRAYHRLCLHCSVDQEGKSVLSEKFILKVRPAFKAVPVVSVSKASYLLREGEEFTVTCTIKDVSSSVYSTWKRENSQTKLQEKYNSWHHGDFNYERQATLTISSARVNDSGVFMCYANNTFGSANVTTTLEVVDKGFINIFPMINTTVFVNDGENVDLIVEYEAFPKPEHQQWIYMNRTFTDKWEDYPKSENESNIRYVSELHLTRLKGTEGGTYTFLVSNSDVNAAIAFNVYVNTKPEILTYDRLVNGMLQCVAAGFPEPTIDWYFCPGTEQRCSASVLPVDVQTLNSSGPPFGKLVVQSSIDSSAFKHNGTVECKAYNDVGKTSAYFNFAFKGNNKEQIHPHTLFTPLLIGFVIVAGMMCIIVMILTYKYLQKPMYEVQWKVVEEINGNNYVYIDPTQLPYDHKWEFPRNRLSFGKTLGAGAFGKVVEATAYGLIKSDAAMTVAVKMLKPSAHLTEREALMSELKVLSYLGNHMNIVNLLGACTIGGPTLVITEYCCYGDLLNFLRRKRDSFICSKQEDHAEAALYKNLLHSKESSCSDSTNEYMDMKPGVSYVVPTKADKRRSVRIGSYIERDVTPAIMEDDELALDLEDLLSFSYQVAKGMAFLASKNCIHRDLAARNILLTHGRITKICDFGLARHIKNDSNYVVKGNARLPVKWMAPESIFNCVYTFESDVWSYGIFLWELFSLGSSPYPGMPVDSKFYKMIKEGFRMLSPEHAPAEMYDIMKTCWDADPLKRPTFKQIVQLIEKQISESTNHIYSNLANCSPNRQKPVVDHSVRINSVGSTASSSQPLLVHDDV

KIT-autoinhibited = target: T18, KIT-autoinhibited (Homo sapiens, UniProt P10721); assay: KINOMEscan; assay type: binding; details: read-out: %Ctrl @ 1000 nM
T18 construct: purchased DiscoveRx KINOMEscan
T18 sequence (P10721 26-976): as the sequence (P10721 26-976 D816H) above, with H791D counted along it

LIMK2 = target: T19, LIMK2 (Homo sapiens, UniProt P53671); assay: KINOMEscan; assay type: binding; details: read-out: %Ctrl @ 1000 nM
T19 construct: purchased DiscoveRx KINOMEscan

LOK = target: T20, LOK (Homo sapiens, UniProt O94804); assay: KINOMEscan; assay type: binding; details: read-out: %Ctrl @ 1000 nM
T20 construct: purchased DiscoveRx KINOMEscan

MAP3K1 = target: T21, MAP3K1 (Homo sapiens, UniProt Q13233); assay: KINOMEscan; assay type: binding; details: read-out: %Ctrl @ 1000 nM
T21 construct: purchased DiscoveRx KINOMEscan
T21 sequence (Q13233 whole entry): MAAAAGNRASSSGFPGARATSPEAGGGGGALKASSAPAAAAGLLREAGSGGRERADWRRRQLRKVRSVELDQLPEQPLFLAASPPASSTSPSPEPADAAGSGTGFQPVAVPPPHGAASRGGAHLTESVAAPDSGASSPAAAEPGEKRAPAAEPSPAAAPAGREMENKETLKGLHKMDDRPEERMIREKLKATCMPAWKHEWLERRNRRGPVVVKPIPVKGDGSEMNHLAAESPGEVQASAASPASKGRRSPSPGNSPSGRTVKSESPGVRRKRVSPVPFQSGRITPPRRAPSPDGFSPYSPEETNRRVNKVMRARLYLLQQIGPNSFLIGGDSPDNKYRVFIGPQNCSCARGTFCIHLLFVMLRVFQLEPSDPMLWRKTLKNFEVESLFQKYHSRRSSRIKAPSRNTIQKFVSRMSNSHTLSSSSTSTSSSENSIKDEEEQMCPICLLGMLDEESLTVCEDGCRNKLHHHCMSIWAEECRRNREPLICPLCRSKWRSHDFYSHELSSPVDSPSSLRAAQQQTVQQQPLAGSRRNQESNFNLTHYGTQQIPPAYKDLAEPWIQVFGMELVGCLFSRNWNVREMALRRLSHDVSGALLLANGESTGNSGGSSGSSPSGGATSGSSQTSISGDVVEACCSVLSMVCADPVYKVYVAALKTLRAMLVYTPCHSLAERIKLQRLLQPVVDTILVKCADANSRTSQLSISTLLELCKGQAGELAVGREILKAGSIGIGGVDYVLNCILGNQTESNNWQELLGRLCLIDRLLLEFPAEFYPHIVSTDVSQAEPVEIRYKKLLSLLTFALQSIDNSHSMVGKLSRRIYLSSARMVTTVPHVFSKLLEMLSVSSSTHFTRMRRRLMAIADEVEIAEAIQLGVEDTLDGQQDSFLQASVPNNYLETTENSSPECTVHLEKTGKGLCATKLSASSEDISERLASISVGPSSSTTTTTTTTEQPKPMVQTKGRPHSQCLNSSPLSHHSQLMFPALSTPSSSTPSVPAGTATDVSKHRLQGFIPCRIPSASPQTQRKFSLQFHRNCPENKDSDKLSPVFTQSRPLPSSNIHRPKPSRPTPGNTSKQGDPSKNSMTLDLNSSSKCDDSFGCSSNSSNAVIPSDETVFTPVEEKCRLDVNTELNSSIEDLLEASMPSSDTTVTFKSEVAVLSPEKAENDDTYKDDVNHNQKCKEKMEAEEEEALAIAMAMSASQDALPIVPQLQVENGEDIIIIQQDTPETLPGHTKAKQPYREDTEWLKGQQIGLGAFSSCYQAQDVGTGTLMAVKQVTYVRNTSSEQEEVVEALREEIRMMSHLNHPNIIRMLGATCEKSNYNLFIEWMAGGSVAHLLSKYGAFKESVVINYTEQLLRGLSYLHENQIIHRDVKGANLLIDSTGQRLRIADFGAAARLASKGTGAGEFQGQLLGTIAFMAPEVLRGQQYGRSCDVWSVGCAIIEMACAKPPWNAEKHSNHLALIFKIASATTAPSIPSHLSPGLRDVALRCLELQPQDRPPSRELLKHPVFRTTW

MELK = target: T22, MELK (Homo sapiens, UniProt Q14680); assay: KINOMEscan; assay type: binding; details: read-out: %Ctrl @ 1000 nM
T22 construct: purchased DiscoveRx KINOMEscan
T22 sequence (Q14680 whole entry): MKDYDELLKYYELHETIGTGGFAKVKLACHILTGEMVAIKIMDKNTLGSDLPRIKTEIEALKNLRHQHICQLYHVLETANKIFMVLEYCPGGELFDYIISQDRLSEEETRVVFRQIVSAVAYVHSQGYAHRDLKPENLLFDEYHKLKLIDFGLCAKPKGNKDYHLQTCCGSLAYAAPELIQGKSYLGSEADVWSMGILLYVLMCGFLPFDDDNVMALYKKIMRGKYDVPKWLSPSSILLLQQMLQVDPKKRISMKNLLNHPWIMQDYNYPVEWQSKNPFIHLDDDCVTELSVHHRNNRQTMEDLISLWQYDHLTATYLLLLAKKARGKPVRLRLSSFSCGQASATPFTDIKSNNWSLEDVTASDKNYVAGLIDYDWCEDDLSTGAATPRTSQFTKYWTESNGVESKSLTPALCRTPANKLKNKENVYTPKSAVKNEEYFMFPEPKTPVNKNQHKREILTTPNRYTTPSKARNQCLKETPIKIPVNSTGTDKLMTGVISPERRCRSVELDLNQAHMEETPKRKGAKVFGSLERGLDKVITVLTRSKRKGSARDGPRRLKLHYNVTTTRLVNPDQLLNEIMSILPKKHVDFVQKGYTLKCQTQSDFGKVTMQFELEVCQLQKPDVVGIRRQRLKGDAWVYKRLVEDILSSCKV

MLK1 = target: T23, MLK1 (Homo sapiens, UniProt P80192); assay: KINOMEscan; assay type: binding; details: read-out: %Ctrl @ 1000 nM
T23 construct: purchased DiscoveRx KINOMEscan

NDR2 = target: T24, NDR2 (Homo sapiens, UniProt Q9Y2H1); assay: KINOMEscan; assay type: binding; details: read-out: %Ctrl @ 1000 nM
T24 construct: purchased DiscoveRx KINOMEscan

PAK2 = target: T25, PAK2 (Homo sapiens, UniProt Q13177); assay: KINOMEscan; assay type: binding; details: read-out: %Ctrl @ 1000 nM
T25 construct: purchased DiscoveRx KINOMEscan

PIK3C2B = target: T26, PIK3C2B (Homo sapiens, UniProt O00750); assay: KINOMEscan; assay type: binding; details: read-out: %Ctrl @ 1000 nM
T26 construct: purchased DiscoveRx KINOMEscan

PRKCE = target: T27, PRKCE (Homo sapiens, UniProt Q02156); assay: KINOMEscan; assay type: binding; details: read-out: %Ctrl @ 1000 nM
T27 construct: purchased DiscoveRx KINOMEscan

PRKCH = target: T28, PRKCH (Homo sapiens, UniProt P24723); assay: KINOMEscan; assay type: binding; details: read-out: %Ctrl @ 1000 nM
T28 construct: purchased DiscoveRx KINOMEscan

RIOK2 = target: T29, RIOK2 (Homo sapiens, UniProt Q9BVS4); assay: KINOMEscan; assay type: binding; details: read-out: %Ctrl @ 1000 nM
T29 construct: purchased DiscoveRx KINOMEscan

[3] = target: T30, RSK4(Kin.Dom.1-N-terminal) (Homo sapiens, UniProt Q9UK32); assay: KINOMEscan; assay type: binding; details: read-out: %Ctrl @ 1000 nM
T30 construct: RSK4(Kin.Dom.1-N-terminal); purchased DiscoveRx KINOMEscan
T30 sequence (Q9UK32 73-400 limits assumed): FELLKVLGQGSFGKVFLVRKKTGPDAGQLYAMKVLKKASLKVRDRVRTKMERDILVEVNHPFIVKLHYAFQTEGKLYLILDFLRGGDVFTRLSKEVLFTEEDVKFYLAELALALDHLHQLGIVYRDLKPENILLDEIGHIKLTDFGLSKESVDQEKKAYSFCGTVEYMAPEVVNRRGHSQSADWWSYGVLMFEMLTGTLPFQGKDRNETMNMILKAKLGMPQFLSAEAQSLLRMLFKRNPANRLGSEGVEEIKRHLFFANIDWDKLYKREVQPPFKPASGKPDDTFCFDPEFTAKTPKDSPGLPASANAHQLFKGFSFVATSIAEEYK

TYRO3 = target: T31, TYRO3 (Homo sapiens, UniProt Q06418); assay: KINOMEscan; assay type: binding; details: read-out: %Ctrl @ 1000 nM
T31 construct: purchased DiscoveRx KINOMEscan
T31 sequence (Q06418 41-890): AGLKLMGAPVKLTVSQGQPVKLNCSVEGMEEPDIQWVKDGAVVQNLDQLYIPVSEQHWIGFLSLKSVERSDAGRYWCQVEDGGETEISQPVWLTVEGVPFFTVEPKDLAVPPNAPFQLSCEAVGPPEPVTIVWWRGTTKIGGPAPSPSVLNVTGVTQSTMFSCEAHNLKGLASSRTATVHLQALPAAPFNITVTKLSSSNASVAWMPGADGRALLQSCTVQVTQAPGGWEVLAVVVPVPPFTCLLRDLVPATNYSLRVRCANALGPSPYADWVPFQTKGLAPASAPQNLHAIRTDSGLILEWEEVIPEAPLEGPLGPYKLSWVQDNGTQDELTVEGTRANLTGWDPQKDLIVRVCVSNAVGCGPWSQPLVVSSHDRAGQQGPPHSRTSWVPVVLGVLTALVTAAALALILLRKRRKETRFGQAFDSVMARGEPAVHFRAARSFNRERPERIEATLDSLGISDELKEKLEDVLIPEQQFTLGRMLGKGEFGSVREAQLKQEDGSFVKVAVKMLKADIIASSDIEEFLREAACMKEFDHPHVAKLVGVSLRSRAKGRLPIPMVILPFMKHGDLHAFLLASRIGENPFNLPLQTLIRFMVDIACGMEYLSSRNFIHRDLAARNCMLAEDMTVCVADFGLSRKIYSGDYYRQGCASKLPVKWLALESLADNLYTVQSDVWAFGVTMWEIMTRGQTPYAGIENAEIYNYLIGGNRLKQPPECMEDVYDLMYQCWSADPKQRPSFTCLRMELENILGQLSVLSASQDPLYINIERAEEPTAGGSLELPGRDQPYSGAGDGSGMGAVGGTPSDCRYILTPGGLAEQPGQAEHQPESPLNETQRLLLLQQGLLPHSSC

ZAP70 = target: T32, ZAP70 (Homo sapiens, UniProt P43403); assay: KINOMEscan; assay type: binding; details: read-out: %Ctrl @ 1000 nM
T32 construct: purchased DiscoveRx

CCN(C(=O)CO)[C@H]1CN(/C(=N\C#N)Nc2cccc(OC(F)F)c2)N=C1c1ccc(Cl)c(Cl)c1 [(S)-4]
Papp A→B at 2 h, 2 µM [1]: 3.4 ×10⁻⁶ cm/s | remaining binding at 1 µM (AMPK-alpha1): 68% | remaining binding at 1 µM (BMX): 89% | remaining binding at 1 µM (BUB1): 100% | remaining binding at 1 µM (CDK2): 100% | remaining binding at 1 µM (CDKL1): 76% | remaining binding at 1 µM (CSK): 91% | remaining binding at 1 µM (DDR2): 100% | remaining binding at 1 µM (EGFR(E746-A750del)): 66% | remaining binding at 1 µM (EPHA2): 84% | remaining binding at 1 µM (EPHA8): 94% | remaining binding at 1 µM (ERK2): 98% | remaining binding at 1 µM (ERK4): 100% | remaining binding at 1 µM (FAK): 99% | remaining binding at 1 µM (FGFR2): 86% | remaining binding at 1 µM (FLT3(D835H)): 93% | %Ctrl @ 1000 nM (FLT3(ITD)): 91% | remaining binding at 1 µM [2]: 100% | remaining binding at 1 µM (KIT(D816H)): 95% | remaining binding at 1 µM (KIT-autoinhibited): 90% | remaining binding at 1 µM (LIMK2): 62% | remaining binding at 1 µM (LOK): 69% | remaining binding at 1 µM (MAP3K1): 100% | remaining binding at 1 µM (MELK): 99% | remaining binding at 1 µM (MLK1): 100% | remaining binding at 1 µM (NDR2): 76% | remaining binding at 1 µM (PAK2): 89% | remaining binding at 1 µM (PIK3C2B): 100% | remaining binding at 1 µM (PRKCE): 92% | remaining binding at 1 µM (PRKCH): 80% | remaining binding at 1 µM (RIOK2): 100% | remaining binding at 1 µM [3]: 92% | remaining binding at 1 µM (TYRO3): 100% | remaining binding at 1 µM (ZAP70): 100%
